Experimental findings from patent US12391674B2, “Heterocyclic compounds for the treatment of epilepsy” (OTSUKA PHARMACEUTICAL CO., LTD., priority 2018, dated 2025) are described below.

The structures appear in SMILES notation. Some results are limits rather than exact numbers.

For the first assay, the system named is DBA/2 mice. In words: Audiogenic seizure model. The assay is classed as in vivo. The following applies: Mus musculus, po, 1 h, read-out: Seizure suppression. The method, then: The animal model used in this test is a phenotype model for partial seizure (including secondary generalized seizure) and generalized tonic-clonic seizure, and has high clinical predictability. This test was performed in accordance with the report of De Sarro et al (Br J Pharmacol. 1988 February; 93 (2): 247-56. Anticonvulsant effects of some calcium entry blockers in DBA/2 mice. De Sarro G B, Meldrum B S, Nistico G.).
In this test example, the example compounds shown in Tables 3-1 to 3-3 below were used as test compounds.
The test compounds were suspended in 5% gum arabic/distilled water (w/v), and administered by forced oral administration to male and female DBA/2 mice (Japan SLC, Inc., 3 weeks old, 8 per group) at a dose of 30 mg/kg. After one hour of the oral administration of the test compound, each mouse was placed in a transparent acrylic cylinder 30 cm high and 23 cm in diameter, and 30 seconds were allowed for habituation. Then, they were exposed to auditory stimulation (12.6 kHz, 100-110 dB) for 1 minute or until a tonic seizure occurred.
The seizure response was assessed using the following scale, 0: no seizure, 1: wild running, 2: clonic seizure, 3: tonic seizure and 4: respiratory arrest. The maximum response was recorded as the seizure severity score.
The seizure suppression rate for each compound administration group was calculated according to the following formula.
Here, a rate of seizure suppression of 90% or more was expressed as “A”, a rate of seizure suppression of 70% or more and less than 90% was expressed as “B”, and a rate of seizure suppression of 50% or more and less than 70% was expressed as “C”.
`Cc1ncccc1-c1cnc(Oc2cc(F)cc(F)c2)nc1` [Example 56]: the inhibition in vivo at 30 mg/kg was above 90%.

The assay is the same for the next values; noted with them: Mus musculus; DBA/2 mice, oral, dose 5 mg/kg, auditory stimulation 1 hour after administration; read-out: Seizure suppression.
As to `Fc1cc(F)cc(Oc2ncc(-c3ccc4nccn4c3)cn2)c1` [Example 169], the inhibition in vivo at 5 mg/kg is above 90%.
On the same count and under the same terms, under `c1ccc(Oc2ncc(-c3ccncc3)cn2)cc1` [Example 9] stands above 90%.
Take `Fc1cccc(F)c1Oc1ncc(-c2ccc3nccn3c2)cn1` [Example 167]: the inhibition in vivo at 5 mg/kg is above 90%.

The same assay, now with this note: Mus musculus; DBA/2 mice, oral, dose 30 mg/kg, auditory stimulation 1 hour after administration; read-out: Seizure suppression.
For `FC(F)(F)c1cccc(Oc2ncc(-c3cccnc3)cn2)c1` [Example 14], the inhibition in vivo at 30 mg/kg is above 90%.
Same read-out and setting: the value for `Cc1nc2cc(-c3cnc(Oc4ccccc4)nc3)ccc2s1` [Example 238] was above 90%.
On the same count and under the same terms, the value for `Nc1ccc(-c2cnc(Oc3ccc(F)cc3)nc2)nn1` [Example 20] was above 90%; that for `COc1ccc(-c2cnc(Oc3cc(F)cc(F)c3)nc2)nn1` [Example 19] was above 90%.
On to `O=c1ccc(-c2cnc(Oc3cccc(Cl)c3)nc2)n[nH]1` [Example 111], for which the inhibition in vivo at 30 mg/kg was above 90%.
Turning to `Cc1ccc(-c2cnc(Oc3ccccc3F)nc2)nn1` [Example 25], the inhibition in vivo at 30 mg/kg is above 90%.
As to `O=C1Nc2ccc(-c3cnc(Oc4ccccc4)nc3)cc2C1=O` [Example 271], the inhibition in vivo at 30 mg/kg was above 90%.
Still for that read-out and setting: under `Cc1cnc2ccc(-c3cnc(Oc4ccccc4F)nc3)cn12` [Example 191] stands above 90%.
On the same count and under the same terms, the value for `Cc1nc2cc(-c3cnc(Oc4ccccc4F)nc3)ccn2c1C` [Example 205] was above 90%.
On the same count and under the same terms, under `Cc1cn2cc(-c3cnc(Oc4ccccc4F)nc3)ccc2n1` [Example 178] stands above 90%; under `O=c1ccc(-c2cnc(Oc3cc(F)ccc3F)nc2)n[nH]1` [Example 108], above 90%; under `Fc1cccc(Oc2ncc(-c3ccn4nccc4c3)cn2)c1` [Example 196], above 90%.
On to `Fc1cccc(Oc2ncc(-c3ccn4cnnc4c3)cn2)c1` [Example 212], for which the inhibition in vivo at 30 mg/kg was above 90%.
The same measure, in the same setting: the value for `Cc1ncccc1-c1cnc(Oc2cccc(F)c2)nc1` [Example 47] was above 90%; that for `Nc1ccc(-c2cnc(Oc3c(F)cccc3F)nc2)nn1` [Example 39] was above 90%; that for `FC(F)c1ccc(-c2cnc(Oc3ccccc3)nc2)cn1` [Example 37] was above 90%.
As to `COc1ccc(-c2cnc(Oc3cc(F)ccc3F)nc2)nn1` [Example 63, 3-(2-(2,5-Difluorophenoxy)Pyrimidin-5-Yl)-6-Methoxypyridazine], the inhibition in vivo at 30 mg/kg was above 90%.
The same measure, in the same setting: the value for `[O-][n+]1cccc(-c2cnc(Oc3ccccc3F)nc2)c1` [Example 60, 3-(2-(2-Fluorophenoxy)Pyrimidin-5-Yl)Pyridine 1-Oxide] was above 90%; that for `Nc1cc(-c2cnc(Oc3cccc(F)c3)nc2)ccn1` [Example 78] was above 90%.
The same measure, in the same setting: the value for `Nc1ccc(-c2cnc(Oc3cccc(F)c3)nc2)cn1` [Example 43] was above 90%.
`c1ccc(Oc2ncc(-c3ccc4ccncc4c3)cn2)cc1` [Example 252]: the inhibition in vivo at 30 mg/kg is above 90%.
Same read-out and setting: the value for `O=C1NCCCN1c1cnc(Oc2cccc(F)c2)nc1` [Example 221, 1-(2-(3-Fluorophenoxy)Pyrimidin-5-Yl)Tetrahydropyrimidin-2 (1H)-One] was above 90%.
On the same count and under the same terms, under `O=C1CCc2ccc(-c3cnc(Oc4ccccc4)nc3)cc2N1` [Example 246] stands above 90%; under `Fc1cccc(Oc2ncc(-c3ccc(C(F)(F)F)nn3)cn2)c1` [Example 46], above 90%.
On the same count and under the same terms, the value for `c1ccc(Oc2ncc(-c3cnc4[nH]ncc4c3)cn2)cc1` [Example 133] was above 90%; that for `c1ccc(Oc2ncc(-c3ccn4ncnc4c3)cn2)cc1` [Example 135] was above 90%.
With `CC(C)(O)c1ccc(-c2cnc(Oc3ccccc3)nc2)nn1` [Example 69, 2-(6-(2-Phenoxypyrimidin-5-Yl)Pyridazin-3-Yl) Propan-2-Ol], the inhibition in vivo at 30 mg/kg is above 90%.
Still for that read-out and setting: the value for `COc1ccc(-c2cnc(Oc3cccc(C#N)c3)nc2)nn1` [Example 73] was above 90%.
The same measure, in the same setting: the value for `O=C1CCN(c2ccc(Cc3ccc(F)cc3)cc2)C(=O)N1` [Example 338] was 50 to 70%; that for `COc1ccc(-c2cnc(Oc3cccc(C)c3)nc2)cn1` [Example 29] was above 90%; that for `Fc1cccc(Oc2ncc(-c3ccc4cnc(C(F)(F)F)n4c3)cn2)c1` [Example 287] was above 90%.
Turning to `Fc1ccccc1Oc1ncc(-c2ccc3cnc(C(F)(F)F)n3c2)cn1` [Example 286], the inhibition in vivo at 30 mg/kg is above 90%.
Turning to `O=C1Cc2cc(-c3cnc(Oc4ccc(F)cc4)nc3)ccc2N1` [Example 266], the inhibition in vivo at 30 mg/kg is above 90%.
Still for that read-out and setting: the value for `O=C1CCN(c2ccc(Oc3cc(F)cc(F)c3)cc2)C(=O)N1` [Example 344] was 50 to 70%; that for `Fc1cccc(Oc2ncc(-c3ccn4ccnc4c3)cn2)c1` [Example 131] was above 90%; that for `[O-][n+]1cccc(-c2cnc(Oc3ccc(F)cc3)nc2)c1` [Example 62] was above 90%.
Same read-out and setting: under `Cc1nc2ccc(-c3cnc(Oc4ccc(F)cc4)nc3)cn2c1C` [Example 203] stands above 90%; under `Fc1ccccc1Oc1ncc(-c2ccn3cc(C(F)(F)F)nc3c2)cn1` [Example 217], above 90%.
`c1ccc(Oc2ncc(-c3cccc4nccn34)cn2)cc1` [Example 136]: the inhibition in vivo at 30 mg/kg was above 90%.
Still for that read-out and setting: under `O=C1CCN(c2cc(F)c(Oc3ccccc3)c(F)c2)C(=O)N1` [Example 330] stands 50 to 70%.
On to `COc1ccc(-c2cnc(Oc3cccc(F)c3F)nc2)nn1` [Example 68], for which the inhibition in vivo at 30 mg/kg is above 90%.
On the same count and under the same terms, under `Nc1ccc(-c2cnc(Oc3cc(F)cc(F)c3)nc2)nn1` [Example 41] stands above 90%; under `Cc1cn2ccc(-c3cnc(Oc4ccccc4F)nc3)cc2n1` [Example 182], above 90%; under `Fc1cccc(Oc2ncc(-c3ccc4ccnn4c3)cn2)c1` [Example 153], above 90%.
Still for that read-out and setting: under `Cn1ccc2ccc(-c3cnc(Oc4ccccc4)nc3)nc21` [Example 215] stands above 90%; under `Fc1ccc(Oc2ncc(-c3ccc4ncnn4c3)cn2)cc1` [Example 146], above 90%.
Same read-out and setting: under `Fc1ccc(Oc2ncc(-c3ccc4nncn4n3)cn2)cc1` [Example 292] stands above 90%.
On to `O=C1CCN(c2ccc(-c3ccccc3)cc2)C(=O)N1` [Example 327, 1-((1,1′-Biphenyl)-4-Yl)Dihydropyrimidine-2,4 (1H,3H)-Dione], for which the inhibition in vivo at 30 mg/kg lay within 50 to 70%.
Take `Fc1ccc(Oc2ncc(-c3ccc4ccnn4c3)cn2)cc1` [Example 154]: the inhibition in vivo at 30 mg/kg was above 90%.
Regarding `Cn1ccc2c(-c3cnc(Oc4ccccc4)nc3)cccc21` [Example 263], the inhibition in vivo at 30 mg/kg was above 90%.
The same measure, in the same setting: the value for `O=C1CCN(c2ccc(Oc3cccnc3)cc2)C(=O)N1` [Example 318] was 50 to 70%; that for `Nc1nccc(-c2cnc(Oc3ccccc3)nc2)n1` [Example 75] was above 90%; that for `O=C1CCN(c2ccc(OC(F)(F)F)cc2)C(=O)N1` [Example 319] was 50 to 70%.
With `O=c1ccn(-c2ccc(Oc3ccccc3)nn2)c(=O)[nH]1` [Example 346, 1-(6-Phenoxypyridazin-3-Yl)Pyrimidine-2,4 (1H,3H)-Dione], the inhibition in vivo at 30 mg/kg was 50 to 70%.
Same read-out and setting: under `c1ccc(Oc2ncc(-c3ccc4ncccc4c3)cn2)cc1` [Example 250] stands above 90%.
For the compound `Fc1ccc(Oc2ncc(N3CCOCC3)cn2)cc1` [Example 225], the inhibition in vivo at 30 mg/kg is above 90%.
The same measure, in the same setting: under `c1ccc(Oc2ncc(-c3ccc4ncncc4c3)cn2)cc1` [Example 255] stands above 90%; under `Cn1ncc2ccc(-c3cnc(Oc4ccc(F)cc4)nc3)nc21` [Example 278], above 90%; under `c1ccc(Oc2ncc(-c3cnc4nccn4c3)cn2)cc1` [Example 128], above 90%.
As for `Nc1ccc(-c2cnc(Oc3cc(F)cc(F)c3)nc2)cn1` [Example 53], the inhibition in vivo at 30 mg/kg was above 90%.
Same read-out and setting: the value for `Cc1nc2cc(-c3cnc(Oc4cccc(F)c4)nc3)ccn2c1C` [Example 206] was above 90%; that for `Nc1cc(-c2cnc(Oc3cccc(C(F)(F)F)c3)nc2)ccn1` [Example 81] was above 90%.
As for `Cc1cccc(Oc2ncc(-c3ccc(C)nc3)cn2)c1` [Example 28], the inhibition in vivo at 30 mg/kg is above 90%.
Same read-out and setting: under `COCc1cn2cc(-c3cnc(Oc4ccccc4F)nc3)ccc2n1` [Example 209] stands above 90%.
